Experimental data from article PMC12811501, “A plant-derived antimicrobial peptide with multiple mechanisms of action exhibiting antibacterial and antibiofilm activities comparable to or superior to polymyxin B” (Current Research in Microbial Sciences, 2025).
Values after ≈ are worked out from the molar mass of the structure shown. Read-outs that look alike come from different tables or passages of the source. Residues, ends and D or L forms follow the SMILES beside them.

Assays:
Proteinase K = Proteinase K (Parengyodontium album, UniProt P06873); assay: Proteinase K treatment of peptide-DNA samples (recovery of SYBR Gold fluorescence); details: Proteinase K 1 mg/ml added at 27 min to peptide-DNA-SYBR Gold samples, 10 µM peptide
Chain of Proteinase K (P06873 106-384): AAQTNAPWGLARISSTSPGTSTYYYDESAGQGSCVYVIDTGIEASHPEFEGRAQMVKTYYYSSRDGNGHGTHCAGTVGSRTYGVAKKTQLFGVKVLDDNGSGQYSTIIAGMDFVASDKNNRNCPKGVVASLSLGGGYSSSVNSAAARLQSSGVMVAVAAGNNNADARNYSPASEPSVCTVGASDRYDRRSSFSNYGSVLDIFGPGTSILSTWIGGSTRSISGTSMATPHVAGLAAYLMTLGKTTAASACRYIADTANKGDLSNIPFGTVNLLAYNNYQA
Method: (§1) In addition, DNA-binding kinetics were monitored in real time using a Hidex Sense plate reader at room temperature in three independent experiments. Reaction mixtures contained 100 ng of HindIII-digested lambda phage DNA in 1 × SYBR Gold (Thermo Scientific), either without peptide or with 10 µM of NCR169C17–38 (2.74041 µg), NCR169 (4.56545 µg), NCR169_16–27 (1.56597 µg), or NCR169_17–27 (1.40279 µg). Peptides were added either at the start (0 min) or at 14 min. Fluorescence from DNA-bound SYBR Gold was measured every 3 min (excitation 490 nm, emission 535 nm). At 27 min, proteinase K (1 mg/ml; 100 µg final) was added to peptide-treated samples to assess the effect on peptide–DNA binding. Experiments were done in three biological replicates.
(§2) The DNA-binding kinetics were quantified using SYBR Gold fluorescence (Fig. 3.D). […] To test if peptide removal would recover the DNA–SYBR Gold fluorescence to control values, Proteinase K was added at 27 min to all reactions. […] In contrast, fluorescence values in the NCR169 samples remained unchanged, while those of NCR169C17–38 or NCR169_17–27 increased slightly and gradually to the same limited extent.

[1] = system: Escherichia coli (ATCC 8739); assay type: cell-based; details: ATCC 8739
Excerpt: The Gram-positive strains Enterococcus faecalis (ATCC 29212), Staphylococcus aureus (HNCMO112011), and Listeria monocytogenes (ATCC 19111), and the Gram-negative strains Pseudomonas aeruginosa (ATCC 27853), Escherichia coli (ATCC 8739), Salmonella enterica (ATCC 13076), Klebsiella pneumoniae (NCTC 13440), and Acinetobacter baumannii (ATCC 17978) were obtained from ATCC (United States) and NCTC (National Collection of Type Cultures – England).
Minimal bactericidal concentrations (MBC) of peptides and reference antibiotics were determined in 20 mM potassium phosphate buffer (PPB, pH 7.4) and Mueller–Hinton broth (MHB) as described by ([Jenei et al., 2020]). Briefly, bacterial cultures were grown to mid-log phase, washed, adjusted to OD₆₀₀ = 0.1 (∼10⁷ CFU/mL), added 10 μl of it into 100 μl mixture and incubated in 96-well plates with 2-fold serial dilutions of peptides or antibiotics. After incubation at 37 °C with shaking, bacterial viability was assessed by plating 5 μL aliquots on LB agar. MBC was defined as the lowest concentration yielding no colony growth. […]
Three biological replicates were treated at OD600 = 0.2 with a final concentration of 1.6 µM NCR169C17–38 peptide for 20 min, while the control samples were treated with the same amount of water for 20 min. […] Quality and quantity was detected using 2200 TapeStation (Agilent) and Qubit RNA BR Assay […]

[2] = system: HindIII-digested lambda phage DNA; assay: Real-time DNA binding by SYBR Gold fluorescence; details: 100 ng DNA, 10 µM peptide added at 0 or 14 min, room temperature
Method: as §1, §2

[3] = system: Acinetobacter baumannii pre-formed biofilm; assay: microbe, parasite or virus in culture; assay type: cell-based; details: for MBC: 24 h
Method: For the biofilm eradication assay the difference was at the beginning of the experiments when bacteria were pre-cultured for 24 h or 72 h in MHB with a starting OD600 = 0.01. Then bacterial suspensions were removed from the wells followed by washing three times with 200 µl of 1/2 MHB. Subsequently fresh 1/10 MHB was added to the wells containing the respective dilutions of NCR169C17–38, meropenem or polymixin B and the treatment lasted either 3 h or 24 h. Experiments were done in three biological replicates.
To assess whether the NCR169C17–38 peptide or the tested antibiotics could eradicate pre-formed biofilms, A. baumannii was first cultured in MHB for 24 h, then treated with NCR169C17–38, meropenem or polymyxin B for either 3 h or 24 h, using the same concentration range as in the previous experiment. Both bacterial survival within the pre-formed biofilm and the amount of residual biofilm were assessed. […] In contrast, neither of the two antibiotics completely eliminated the bacteria within the tested concentration range. […] This 24 h of treatment was repeated on mature biofilm (pre-formed for 72 h) and the results were very similar (Supplementary Fig. 1.).

CC[C@H](C)[C@H](NC(=O)[C@H](CCCCN)NC(=O)[C@H](Cc1ccccc1)NC(=O)[C@H](CC(C)C)NC(=O)[C@@H]1CCCN1C(=O)[C@H](CCCCN)NC(=O)[C@H](CCCCN)NC(=O)[C@H](CO)NC(=O)[C@@H](N)CCCCN)C(=O)N[C@@H](Cc1c[nH]c2ccccc12)C(=O)N[C@@H](CCCCN)C(=O)N[C@@H](CS)C(=O)N[C@H](C(=O)N[C@@H](CCC(=O)O)C(=O)N[C@@H](CC(N)=O)C(=O)N[C@H](C(=O)N[C@@H](CS)C(=O)N[C@H](C(=O)N[C@@H](CC(C)C)C(=O)N[C@@H](Cc1c[nH]c2ccccc12)C(=O)N[C@@H](Cc1ccc(O)cc1)C(=O)N[C@@H](CCCCN)C(N)=O)C(C)C)C(C)C)C(C)C [NCR169C17–38] (H-KSKKPLFKIWKCVENVCVLWYK-NH2; N-terminus assumed)
sensitivity to Proteinase K treatment (Proteinase K): only partial sensitivity | MBC [1]: 6.2 µM (≈ 17 µg/mL) | extent of SYBR Gold fluorescence signal reduction (hierarchy) [2]: NCR169C17–38 > NCR169 > NCR169_16–27 > NCR169_17–27 | degradation of pre-formed biofilm ([3]; A. baumannii biofilm pre-formed 24 h, 24 h of treatment, Crystal Violet OD550): successful even at sub-MBC level | MBC ([3]; pre-formed biofilm, read-out: MBC, Eradication test after 3 h): 6.3 µM (≈ 17.3 µg/mL) | MBC ([3]; pre-formed biofilm, read-out: MBC, Eradication test after 24 h): 12.5 µM (≈ 34.2 µg/mL) | concentration degrading the mature biofilm (sub-MBC level) ([3]; pre-formed biofilm, 72 h): 3.1 µM
